Assay [1] in a line: Effect on Wnt signaling pathway in human SW480 cells harbouring TCF/LEF luciferase reporter gene and SP5-Luc reporter gene incubated for 36 to 48 hrs by luminescence assay. The format is cell-based.
Assay [2] concerns the target Dual specificity tyrosine-phosphorylation-regulated kinase 1A (Homo sapiens, UniProt Q13627). The assay is described as follows: Inhibition of recombinant DYRK1A (unknown origin) using Ser/Thr 18 peptide as substrate incubated for 1 hr in presence of ATP by FRET assay.
Assay [3] can be described thus: Induction of chondrogenesis in human MSC assessed as maximum activity at 900 nM incubated for 6 days by rhodamine B and Nile red staining based imaging analysis relative to control. Type of assay: functional. As to conditions: BMMSC, 144 h, time 6 day.
Assay [4] is described as follows: Inhibition of IL1-beta induced MMP3 expression levels in human chondrocytes assessed as MMP3 levels incubated for 2hrs followed by IL1-beta stimulation and measured after overnight incubation by LANCE assay. Type of assay: functional, cell-based. Conditions: Chondrocyte.
A short description of assay [5]: Induction of chondrogenesis in human MSC assessed as maximum activity at 30 nM incubated for 6 days by rhodamine B and Nile red staining based imaging analysis relative to control. Type of assay: functional. Conditions: BMMSC, 144 h, time 6 day.
Assay [6] deals with Dual specificity protein kinase CLK2 (Homo sapiens, UniProt P49760). The assay is described as follows: Inhibition of recombinant CLK2 (unknown origin) using Ser/Thr 6 peptide as substrate incubated for 1 hr in presence of ATP by FRET assay.
In assay [7] the target is Dual specificity protein kinase CLK3 (Homo sapiens, UniProt P49761). The assay is described as follows: Inhibition of recombinant CLK3 (unknown origin) using Ser/Thr 18 peptide as substrate incubated for 1 hr in presence of ATP by FRET assay.
Assay [8] concerns Chondrocyte. The assay is described as follows: Inhibition of IL1-beta induced MMP1 expression levels in human chondrocytes assessed as MMP1 levels incubated for 2hrs followed by IL1-beta stimulation and measured after 24 hrs by qRT-PCR analysis. Type of assay: functional. Conditions: time 26.0 hrs. A general note: Real-time PCR tracks product formation cycle by cycle.
Assay [9] deals with Chondrocyte. The assay is described as follows: Inhibition of IL1-beta induced MMP3 expression levels in human chondrocytes assessed as MMP3 levels incubated for 2hrs followed by IL1-beta stimulation and measured after 24 hrs by qRT-PCR analysis. Type of assay: functional. As to conditions: time 26.0 hrs.
In assay [10] the test system is Chondrocyte. The assay is described as follows: Inhibition of IL1-beta induced MMP-13 expression levels in human chondrocytes assessed as MMP-13 levels incubated for 2hrs followed by IL1-beta stimulation and measured after 24 hrs by qRT-PCR analysis. Type of assay: functional. As to conditions: time 26.0 hrs.
Assay [11] can be described thus: Induction of chondrogenesis in human MSC assessed as maximum activity at 100 nM incubated for 6 days by rhodamine B and Nile red staining based imaging analysis relative to control. The format is functional. As to conditions: BMMSC, 144 h, time 6 day.
A short description of assay [12]: Induction of chondrogenesis in human MSC assessed as maximum activity at 20.58 nM incubated for 6 days by rhodamine B and Nile red staining based imaging analysis relative to control. The format is functional. As to conditions: BMMSC, 144 h, time 6 day.
The nature of assay [13]: Induction of chondrogenesis in human MSC assessed as incubated for 6 days by rhodamine B and Nile red staining based imaging analysis. The format is functional. Conditions: bmmsc.
Assay [14] is described as follows: Induction of chondrogenesis in human MSC assessed as maximum activity at 185.19 nM incubated for 6 days by rhodamine B and Nile red staining based imaging analysis relative to control. The format is functional. As to conditions: BMMSC, 144 h, time 6 day.
Assay [15] can be described thus: Induction of chondrogenesis in human MSC assessed as maximum activity at 5000 nM incubated for 6 days by rhodamine B and Nile red staining based imaging analysis relative to control. The format is functional. Conditions: BMMSC, 144 h, time 6 day.
Assay [16] in a line: Induction of chondrogenesis in human MSC assessed as maximum activity at 61.73 nM incubated for 6 days by rhodamine B and Nile red staining based imaging analysis relative to control. Conditions: BMMSC, 144 h, time 6 day. The format is functional.
Assay [17] in a line: Induction of chondrogenesis in human MSC assessed as maximum activity at 1700 nM incubated for 6 days by rhodamine B and Nile red staining based imaging analysis relative to control. Conditions: BMMSC, 144 h, time 6 day. Type of assay: functional.
The nature of assay [18]: Induction of chondrogenesis in human MSC assessed as maximum activity at 2700 nM incubated for 6 days by rhodamine B and Nile red staining based imaging analysis relative to control. Conditions: BMMSC, 144 h, time 6 day. Type of assay: functional.

Our source for the EC50, Emax and Activity values is ChEMBL document CHEMBL4739717, “Methods of treating cartilage disorders through inhibition of clk and dyrk” (2020).

Activity calls are given as the source filed them. No cut-off for these calls is given here. Bounds are passed on as bounds.

Dual specificity protein kinase CLK2, sequence (P49760 whole entry): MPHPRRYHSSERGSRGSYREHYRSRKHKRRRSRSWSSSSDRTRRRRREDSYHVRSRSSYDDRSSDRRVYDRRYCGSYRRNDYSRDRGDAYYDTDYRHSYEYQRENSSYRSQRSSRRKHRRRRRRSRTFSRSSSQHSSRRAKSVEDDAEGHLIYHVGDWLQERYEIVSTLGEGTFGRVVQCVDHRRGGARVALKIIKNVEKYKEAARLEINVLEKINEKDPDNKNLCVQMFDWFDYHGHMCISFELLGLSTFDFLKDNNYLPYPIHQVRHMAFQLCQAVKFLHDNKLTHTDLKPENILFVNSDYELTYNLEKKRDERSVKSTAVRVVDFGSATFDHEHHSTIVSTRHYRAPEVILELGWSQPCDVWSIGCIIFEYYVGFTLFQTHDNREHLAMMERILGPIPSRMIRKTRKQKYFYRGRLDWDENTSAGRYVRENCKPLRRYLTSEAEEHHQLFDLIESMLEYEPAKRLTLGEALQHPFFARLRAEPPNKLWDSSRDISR
Dual specificity protein kinase CLK3, sequence (P49761 whole entry): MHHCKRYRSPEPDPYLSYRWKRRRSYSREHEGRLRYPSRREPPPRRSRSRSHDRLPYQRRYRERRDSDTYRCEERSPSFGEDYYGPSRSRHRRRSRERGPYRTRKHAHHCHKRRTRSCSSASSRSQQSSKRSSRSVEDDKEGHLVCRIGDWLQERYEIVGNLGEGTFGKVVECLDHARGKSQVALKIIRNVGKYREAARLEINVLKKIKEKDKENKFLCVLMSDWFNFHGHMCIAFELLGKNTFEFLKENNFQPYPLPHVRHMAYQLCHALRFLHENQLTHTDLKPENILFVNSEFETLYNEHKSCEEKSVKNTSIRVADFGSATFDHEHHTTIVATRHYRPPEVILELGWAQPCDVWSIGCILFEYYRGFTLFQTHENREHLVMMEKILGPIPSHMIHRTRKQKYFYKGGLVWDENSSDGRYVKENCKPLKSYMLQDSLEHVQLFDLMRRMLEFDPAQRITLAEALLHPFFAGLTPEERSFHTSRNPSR

For `CN(C)C(=O)Nc1cncc(-c2cnc3[nH]nc(-c4nc5c(-c6cccc(F)c6)cncc5[nH]4)c3c2)c1`, the half-maximal effective concentration (EC50) (in general, the midpoint of the concentration-response curve) in assay [1] amounted to 0.01 µM; in assay [2], 0.004 µM; in assay [4] it was 0.0406 µM. The Emax (in general, the maximal effect, on the per cent scale that the assay sets) at 0.9 µM in assay [3] was 68.1%.
Take `Cc1n[nH]c2ccc(-c3cncc(N[C@H]4CCNC[C@@H]4F)n3)cc12`: the Emax at 0.03 µM in assay [5] turned out to be 25.6%. For the same compound, the EC50 in assay [1] came out at 0.0843 µM; in assay [2] it was 0.001 µM; in assay [6], 0.001 µM; in assay [7], 0.424 µM. The result with Chondrocyte [8], in the assay on Chondrocyte [9] and in the assay with Chondrocyte [10] was inactive.
`Cn1cc(-c2cc3c(C(=O)Nc4ccc(CN5CCCC5)cc4)n[nH]c3cc2F)cn1`: the EC50 in assay [1] was 0.242 µM; in assay [2], 0.001 µM; in assay [4], 3 µM. The Emax at 0.1 µM in assay [11] was found to be 27.4%. The outcome with Chondrocyte [8] and with Chondrocyte [9] was inactive.
For `Fc1cccc(-c2cncc3[nH]c(-c4n[nH]c5ccc(-c6cn[nH]c6)nc45)nc23)c1`, the EC50 in assay [1] was above 10 µM; in assay [2], 0.016 µM; in assay [7], above 10 µM; in assay [13] it was 0.0206 µM. In addition, in assay [12], the Emax at 0.02058 µM amounted to 51.8%.
Consider `CCNCc1cncc(-c2ccc3[nH]nc(-c4nc5c(-c6cc(F)cc(NCCN(C)C)c6)ccnc5[nH]4)c3n2)c1`, for which the half-maximal effective concentration (EC50) in assay [1] was above 10 µM; in assay [2] it was 0.008 µM; in assay [13], 0.0206 µM. Also, the maximal response (Emax) at 0.02058 µM in assay [12] is 149%.
For `COc1cncc(C(=O)Nc2c[nH]nc2C(=O)Nc2ccc(N3CCC(F)(F)C3)nc2)c1`, the EC50 in [1] was 0.0057 µM; in assay [2], 0.014 µM; in assay [7] it was above 10 µM; in [13], 0.3 µM; in assay [4], 0.0022 µM. Moreover, in assay [3], the Emax at 0.9 µM came to 124%.
As to `Oc1cncc(-c2ccc3[nH]nc(-c4nc5c(-c6cccc(F)c6)nccc5[nH]4)c3n2)c1`, the EC50 was determined as 0.46 µM in assay [1], 0.024 µM in [2] and 0.00686 µM in assay [13]. Further, the Emax at 0.18519 µM in assay [14] came to 56.7%.
Turning to `Oc1cncc(-c2ccc3[nH]nc(-c4nc5c(-c6cccc(F)c6)ccnc5[nH]4)c3n2)c1`, the EC50 in [1] was found to be 0.375 µM; in [2] it was 0.043 µM; in assay [13] it was 0.00229 µM. Moreover, the Emax at 0.02058 µM in [12] is 59.3%.
With `CN1CCCCN(C)c2nccc3[nH]c(nc23)-c2c[nH]c3ccc(cc23)-c2cncc(c2)C1`, the EC50 in [1] stood at 0.577 µM; in assay [2], 0.002 µM; in assay [6], 0.002 µM; in assay [7], 0.012 µM; in assay [13] it was 5 µM. In addition, the maximal effect (Emax) at 5 µM in assay [15] stood at 231%.
For `CCC(=O)Nc1cncc(-c2ccc3[nH]nc(-c4nc5c(-c6cccc(F)c6)ccnc5[nH]4)c3n2)c1`, the Emax at 0.06173 µM in [16] came to 29.3%. Also, the concentration for a half-maximal effect (EC50) in assay [1] is above 10 µM; in assay [2], 0.036 µM.
In the case of `CCC(=O)Nc1cncc(-c2ccc3[nH]nc(-c4nc5c(N6CCCCC6)ccnc5[nH]4)c3n2)c1`, the concentration for a half-maximal effect (EC50) was above 10 µM in [1] and 0.09 µM in assay [2]. The Emax at 0.02058 µM in assay [12] stood at 38.3%.
As to `Cc1n[nH]c2ccc(-c3cncc(OC[C@H](N)Cc4ccccc4)n3)cc12`, the EC50 in [1] was 0.256 µM; in assay [2], 0.004 µM; in [13], 0.03 µM. Further, the Emax at 0.1 µM in assay [11] came out at 52.1%. Further, the outcome in the assay with Chondrocyte [8], in the assay on Chondrocyte [9] and in the assay on Chondrocyte [10] was inactive.
On to `COc1cncc(-c2ccc3[nH]nc(-c4nc5c(-c6cccc(F)c6)cncc5[nH]4)c3n2)c1`, for which the maximum response (Emax) at 0.06173 µM in assay [16] worked out at 55.5%. In addition, the EC50 in [2] amounted to 0.04 µM; in assay [13], 0.0206 µM.
`O=C(Nc1cccnc1)c1n[nH]c2ccc(-c3cncc(CN4CC5CC(C4)O5)c3)cc12`: the concentration giving a half-maximal response (EC50) is 0.067 µM in [1], 0.9 µM in assay [13] and 3 µM in assay [4]. Moreover, the Emax at 0.9 µM in assay [3] turned out to be 121%.
As to `c1cc2cc(c1)-c1cncc3[nH]c(nc13)-c1n[nH]c3ccc(cc13)-c1cncc(c1)CNC2`, the results for the EC50 in assay [1] and in assay [13] were 0.0418 µM and 0.2 µM, respectively. In assay [17], the maximal response (Emax) at 1.7 µM is 588%.
In the case of `CCNCc1cncc(-c2ccc3[nH]nc(-c4nc5c(-c6cc(F)cc(NCCN(C)C)c6)nccc5[nH]4)c3n2)c1`, the Emax at 0.06173 µM in assay [16] stood at 35.6%. The values for the 50% effective concentration (EC50) in assay [1] and in [2] were above 10 µM and 0.012 µM, respectively.
Turning to `COc1cncc(-c2ccc3[nH]nc(-c4nc5c(-c6cccc(F)c6)ccnc5[nH]4)c3n2)c1`, in assay [16], the maximal effect (Emax) at 0.06173 µM amounted to 47%. Moreover, the EC50 in [2] was 0.051 µM.
Take `Fc1cccc(-c2cccc3[nH]c(-c4n[nH]cc4/C=C/c4cncc(CN5CCCC5)c4)nc23)c1`: the EC50 in assay [1] was 0.0821 µM; in [2], 0.02 µM; in assay [13], 2.7 µM; in assay [4], 0.0014 µM. For the same compound, in assay [18], the Emax at 2.7 µM is 81.7%. Further, the result in the assay with Chondrocyte [8] and with Chondrocyte [9] was inactive.
In the case of `CCCC(=O)Nc1cncc(-c2ccc3[nH]nc(-c4nc5c(-c6ccsc6)cncc5[nH]4)c3n2)c1`, the EC50 in assay [1] was 3.6 µM; in assay [2], 0.046 µM; in [13], 0.0206 µM. Further, the Emax at 0.02058 µM in assay [12] was 58.4%.
Regarding `CCCC(=O)Nc1cncc(-c2ccc3[nH]nc(-c4nc5c(-c6ccncc6)cncc5[nH]4)c3n2)c1`, the concentration giving a half-maximal response (EC50) came to 0.999 µM in [1] and 0.013 µM in assay [2]. Moreover, the maximum response (Emax) at 0.18519 µM in [14] was 31%.
Turning to `O=C1CCc2cccc(c2)-c2cncc(c2)NC(=O)c2n[nH]c3ccc(cc23)-c2cncc(c2)CN1`, the Emax at 0.03 µM in assay [5] was found to be 69.4%. The concentration for a half-maximal effect (EC50) was above 10 µM in assay [1], 0.03 µM in assay [13] and 0.01 µM in assay [4]. In addition, the result in the assay with Chondrocyte [8], in the assay on Chondrocyte [9] and with Chondrocyte [10] was inactive.
Take `COc1cncc(-c2ccc3[nH]nc(-c4nc5c(-c6cccc(F)c6)nccc5[nH]4)c3n2)c1`: the results for the EC50 in [1], in [2] and in [13] were 0.12 µM, 0.046 µM and 0.0206 µM, respectively. In assay [12], the maximal response (Emax) at 0.02058 µM stood at 60.4%.
As for `Fc1ccc(-c2nnc(-c3n[nH]cc3/C=C/c3cccnc3)o2)cc1`, the 50% effective concentration (EC50) came out at 1.51 µM in [1], 0.015 µM in assay [2] and 3 µM in [4]. In addition, in [3], the Emax at 0.9 µM is 23.4%. The result with Chondrocyte [9] and in the assay with Chondrocyte [10] was inactive.
For the compound `Oc1cncc(-c2ccc3[nH]nc(-c4nc5c(-c6cccc(F)c6)cncc5[nH]4)c3n2)c1`, the values for the EC50 in assay [1], in [2] and in assay [13] were above 10 µM, 0.031 µM and 0.0206 µM, respectively. Also, the Emax at 0.02058 µM in assay [12] came out at 53.6%.
Take `Cc1n[nH]c2cc(F)c(-c3cncc(O[C@H]4CCNC[C@@H]4F)n3)cc12`: the 50% effective concentration (EC50) in assay [1] was 0.63 µM; in assay [2], 0.006 µM; in assay [6] it was 0.001 µM; in [7] it was 1.3 µM. For the same compound, the result in the assay with Chondrocyte [8] and in the assay with Chondrocyte [10] was inactive.
On to `CC(C)C(=O)Nc1cncc(-c2ccc3[nH]nc(-c4nc5c(-c6cccnc6)ccnc5[nH]4)c3n2)c1`, for which the Emax at 0.06173 µM in [16] was found to be 26.1%. For the same compound, the figures for the EC50 in assay [1] and in [2] were above 10 µM and 0.03 µM, respectively.
